Test [1] can be described thus: Cytotoxicity against human Huh7.5 cells assessed as decrease in cell viability after 48 hrs by MTT assay. The note with it: Huh7.5, 48 h. It is filed as functional, cell-based. (In general: Tetrazolium assays rely on reduction of a dye to a coloured formazan, in cell work by metabolically active cells.)
A further test deals with K562. The experiment in a line: Cytotoxicity against human K562 cells assessed as decrease in cell viability after 48 hrs by MTT assay. The following applies: K562, 48 h. Format: functional, cell-based.
Another test has as its system L02. Put plainly: Cytotoxicity against human LO2 cells assessed as decrease in cell viability after 48 hrs by MTT assay. Format: ADME, cell-based. The note with it: L02, 48 h.
A further test deals with HCT-116. The experiment in a line: Cytotoxicity against human HCT116 cells assessed as decrease in cell viability after 48 hrs by MTT assay. It is filed as functional, cell-based. The following applies: HCT-116, 48 h.

For the compound `CC(=O)N[C@@H]1C[C@H]2O[C@@](C)([C@@H]1O)n1c3ccccc3c3c4c(c5c6ccccc6n2c5c31)C(=O)NC4`, the 50% inhibitory concentration (IC50) (as a rule, the point on the concentration scale where inhibition reaches its midpoint) was determined as 2.1 µM in test [1], 5.2 µM with K562, 24.2 µM with L02 and 1 µM in the test with HCT-116.

Take `C[C@]12O[C@H](C[C@@H](N)[C@H]1O)n1c3ccccc3c3c4c(c5c6ccccc6n2c5c31)CNC4=O`: the IC50 in test [1] stood at 0.4 µM; in the test on K562 it was 0.9 µM; in the test on L02, 2.7 µM; in the test with HCT-116, 0.2 µM.

Turning to `C[C@@H]1O[C@@H](n2c3ccccc3c3c4c(c5c6ccccc6[nH]c5c32)CNC4=O)[C@H](O)[C@H](O)[C@H]1O`, the half-inhibitory concentration (IC50) in test [1] was 46 µM; in the test with K562, > 100 µM; in the test with L02, 73.8 µM; in the test on HCT-116, 9 µM.

As for `CC(=O)N[C@@H]1C[C@H]2O[C@@](C)([C@@H]1O)n1c3ccc(O)cc3c3c4c(c5c6ccccc6n2c5c31)C(=O)NC4`, the 50% inhibitory concentration (IC50) in test [1] is > 100 µM; in the test on K562, 8.8 µM; in the test on L02, > 100 µM; in the test on HCT-116 it was 2.7 µM.

Turning to `CC(=O)c1cccn1[C@@H]1C[C@H]2O[C@@](C)([C@@H]1O)n1c3ccccc3c3c4c(c5c6ccccc6n2c5c31)C(=O)NC4`, the IC50 in test [1] is 2.7 µM; in the test on K562, 10.5 µM; in the test with L02 it was > 100 µM; in the test with HCT-116, 3.9 µM.

For `C[C@@H]1O[C@@H](n2c3ccccc3c3c4c(c5c6ccccc6[nH]c5c32)CNC4=O)C[C@@H](N)[C@H]1O`, the half-inhibitory concentration (IC50) in test [1] was 7 µM; in the test with K562, 7.7 µM; in the test on L02, 5.8 µM; in the test with HCT-116 it was 5.1 µM.

Turning to `CC(=O)N[C@@H]1C[C@H](n2c3ccccc3c3c4c(c5c6ccccc6[nH]c5c32)CNC4=O)O[C@@H](C)[C@@H]1O`, the IC50 was 35.2 µM in test [1], 32.4 µM in the test with K562, 41.1 µM with L02 and > 100 µM with HCT-116.

For the origin of these results see ChEMBL document CHEMBL4196147 (J Nat Prod, 2018).
